Results: ChEMBL document CHEMBL1201862, “PubChem BioAssay data set” (2004)
Activity calls are given as the source filed them.

What was measured:
[1] = target: T1, Calpain-2 catalytic subunit (Sus scrofa, UniProt P43367); assay: m-calpain protease blockers, concentration series – biochemical, fluorogenic peptide substrate, dose response (AID 1420); assay type: functional
T1 sequence (P43367 whole entry): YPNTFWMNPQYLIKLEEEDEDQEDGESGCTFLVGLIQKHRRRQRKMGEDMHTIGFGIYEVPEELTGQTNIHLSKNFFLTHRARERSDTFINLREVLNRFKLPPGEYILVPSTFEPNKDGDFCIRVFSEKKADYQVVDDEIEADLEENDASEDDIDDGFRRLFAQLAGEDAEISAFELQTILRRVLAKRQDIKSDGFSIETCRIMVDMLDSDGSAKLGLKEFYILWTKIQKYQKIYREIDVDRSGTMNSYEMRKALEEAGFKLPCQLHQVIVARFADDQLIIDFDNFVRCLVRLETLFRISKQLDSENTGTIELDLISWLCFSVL

[2] = target: FAD-linked sulfhydryl oxidase ALR (Homo sapiens, UniProt P55789); assay: ALR-catalysed DTT oxidation blockers – biochemical, H2O2 detection, luminescence, cherry-pick, dose response (AID 493248)
[3] = target: T2, Rac GTPase-activating protein 1 (Homo sapiens, UniProt Q9H0H5); assay: blockers of MgcRacGAP-driven Rac1 GTP hydrolysis – biochemical, ADP Hunter fluorescence, primary and confirmatory, confirmation (AID 624330); assay type: functional
T2 sequence (Q9H0H5 whole entry): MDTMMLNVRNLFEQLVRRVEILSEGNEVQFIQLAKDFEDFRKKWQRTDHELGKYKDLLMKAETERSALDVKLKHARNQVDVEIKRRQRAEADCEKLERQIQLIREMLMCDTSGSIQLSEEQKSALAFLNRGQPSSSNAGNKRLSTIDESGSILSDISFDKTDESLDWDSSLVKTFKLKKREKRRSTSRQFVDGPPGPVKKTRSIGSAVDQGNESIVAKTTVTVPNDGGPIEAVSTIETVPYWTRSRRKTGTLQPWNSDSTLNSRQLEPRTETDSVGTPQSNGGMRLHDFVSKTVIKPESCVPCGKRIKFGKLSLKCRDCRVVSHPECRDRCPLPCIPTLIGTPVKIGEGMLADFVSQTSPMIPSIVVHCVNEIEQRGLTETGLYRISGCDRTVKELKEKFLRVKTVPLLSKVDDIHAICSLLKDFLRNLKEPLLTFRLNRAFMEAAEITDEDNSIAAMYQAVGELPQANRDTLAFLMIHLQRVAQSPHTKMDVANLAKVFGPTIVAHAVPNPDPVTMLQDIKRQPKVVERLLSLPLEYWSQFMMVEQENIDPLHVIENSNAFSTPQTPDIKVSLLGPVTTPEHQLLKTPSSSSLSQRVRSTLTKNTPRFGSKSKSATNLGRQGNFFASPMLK

[4] = target: T3, Polyadenylate-binding protein 1 (Homo sapiens, UniProt P11940); assay: MLLE binding blockers, Cy5 peptide tracer – biochemical, fluorescence polarization, Cy5-PAM2 peptide, secondary, miRNA deadenylation inhibitor project, dose response (AID 602260); assay type: functional; conditions: read-out: IC50_Mean
[5] = target: T3, Polyadenylate-binding protein 1; assay: MLLE domain peptide-binding blockers, IC50 – biochemical, fluorescence polarization, FITC-PAM2 peptide, dose response (AID 602259); assay type: functional; conditions: read-out: IC50_Mean
[6] = fluconazole-exposed Candida albicans growth modulators – fluorescence, retest, confirmation (AID 2467); assay type: functional, cell-based
[7] = target: T4, Mannose-6-phosphate isomerase (Homo sapiens, UniProt P34949); assay: MPI inhibition at elevated mannose 6-phosphate – biochemical, fluorescence intensity, high mannose 6-phosphate, primary screen (AID 1220)
T4 sequence (P34949 whole entry): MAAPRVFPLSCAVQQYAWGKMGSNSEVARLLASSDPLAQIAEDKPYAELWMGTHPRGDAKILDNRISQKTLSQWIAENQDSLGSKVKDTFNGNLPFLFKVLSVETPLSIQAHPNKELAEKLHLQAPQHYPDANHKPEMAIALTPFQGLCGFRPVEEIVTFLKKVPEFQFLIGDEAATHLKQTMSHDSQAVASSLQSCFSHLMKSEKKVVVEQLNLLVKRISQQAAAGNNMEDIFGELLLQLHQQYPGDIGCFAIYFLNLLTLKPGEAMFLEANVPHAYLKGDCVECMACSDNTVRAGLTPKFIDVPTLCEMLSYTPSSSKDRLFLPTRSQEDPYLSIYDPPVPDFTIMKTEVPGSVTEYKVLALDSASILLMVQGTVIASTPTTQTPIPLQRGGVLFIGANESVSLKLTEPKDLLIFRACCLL

[8] = NIH-3T3 fibroblast cytotoxicity, dose response, cytotoxicity control, cell-based, fluorescence, Alamar Blue, secondary assay (AID 2327); assay type: functional;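 note: NIH-3T3 mouse fibroblasts cultured with fluconazole at 8 µg/mL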

FAD-linked sulfhydryl oxidase ALR, sequence (P55789 whole entry): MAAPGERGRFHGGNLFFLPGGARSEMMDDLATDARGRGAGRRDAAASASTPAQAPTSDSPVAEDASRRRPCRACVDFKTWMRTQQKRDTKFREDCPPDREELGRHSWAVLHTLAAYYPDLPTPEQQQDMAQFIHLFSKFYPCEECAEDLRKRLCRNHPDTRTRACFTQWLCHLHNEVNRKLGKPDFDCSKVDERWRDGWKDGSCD
T3 sequence (P11940 whole entry, the tested form may be a part): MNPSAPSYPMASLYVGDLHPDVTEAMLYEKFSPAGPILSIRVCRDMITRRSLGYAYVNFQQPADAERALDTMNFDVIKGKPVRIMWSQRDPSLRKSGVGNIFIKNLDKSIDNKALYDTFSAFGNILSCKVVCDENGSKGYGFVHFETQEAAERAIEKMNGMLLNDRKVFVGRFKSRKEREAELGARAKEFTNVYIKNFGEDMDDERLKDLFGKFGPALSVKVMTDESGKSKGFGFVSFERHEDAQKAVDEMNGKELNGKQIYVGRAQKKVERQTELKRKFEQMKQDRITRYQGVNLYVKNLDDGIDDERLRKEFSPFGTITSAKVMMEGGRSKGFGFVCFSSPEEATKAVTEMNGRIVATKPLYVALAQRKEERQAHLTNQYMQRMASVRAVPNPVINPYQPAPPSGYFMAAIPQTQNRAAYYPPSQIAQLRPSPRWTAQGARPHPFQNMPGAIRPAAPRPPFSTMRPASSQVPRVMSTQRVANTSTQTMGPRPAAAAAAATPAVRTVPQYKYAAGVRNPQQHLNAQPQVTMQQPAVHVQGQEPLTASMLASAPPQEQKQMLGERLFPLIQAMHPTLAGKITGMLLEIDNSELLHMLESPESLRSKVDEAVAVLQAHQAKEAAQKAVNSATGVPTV

| Compound | IC50 [1] | AC50 [2] | other results |
| --- | --- | --- | --- |
| CN(c1ccc(O)cc1)c1nc(-c2cccnc2)cs1 | – | 3.84 µM (active) | IC50 [3]: 17.5 µM (active) |
| CC(=N\Nc1ccc(Cl)cc1)/C(=N/O)C(=O)Nc1ccccc1 | – | 0.104 µM (active) | – |
| CCN(CC)c1ccc(/C=N/NC(=O)CC(C)C)cc1 | – | 2.97 µM (active) | – |
| Cc1ccc(NCc2ccc(O)c3ncccc23)cc1 | – | – | EC50 [6]: > 38 µM (not active); IC50 [7]: > 50 µM (not active); EC50 [8]: > 160 µM (inconclusive) |
| C/C(=N\OCC(=O)Nc1ccc(Br)cc1)c1cccs1 | > 50 µM (not active) | – | – |
| C/C(=N\Nc1ccc([N+](=O)[O-])cc1)c1ccc(O)cc1 | – | 0.136 µM (active) | EC50 [6]: > 38 µM (not active); EC50 [8]: > 150 µM (inactive) |
| COc1ccc(-c2nc(NC(=O)CCNC(=O)c3ccco3)sc2C)cc1 | 3.03 µM (not active) | – | – |
| [O-][S+](N1CCc2ccccc21)C12CC3CC(CC(C3)C1)C2 (stereo not drawn) | 10.8 µM (not active) | – | – |
| O=C(CCc1c[nH]c2ccccc12)NCCc1ccc(O)cc1 | – | 7.62 µM (active) | IC50 [3]: 112 µM (active) |

Now from value to compound, other results behind:

| IC50 [1] | AC50 [2] | Compound | other results |
| --- | --- | --- | --- |
| < 0.4 µM (not active) | – | CCOc1ccc(NC(=O)CCC(=O)n2nc(C)cc2C)cc1 | – |
| – | < 0.005 µM (active) | Cc1ccc(C2SCC(=O)N2c2ccccc2)cc1 (stereo not drawn) | IC50 [4]: > 66 µM (inactive); IC50 [5]: > 66 µM (inactive) |
| 1.1 µM (not active) | – | Cc1ccc(N(CC(=O)Nc2cccc(C)c2)S(=O)(=O)c2cccc3nonc23)cc1 | – |
| – | 2.76 µM (active) | CSCc1ccc(C(=O)N2CCCC(Nc3ccc(F)cc3)C2)o1 (stereo not drawn) | – |
| > 50 µM (not active) | – | O=C(O)CCC(=O)N1CCN(c2ccc(C(=O)c3ccc(F)cc3)cc2)CC1 | – |
| > 50 µM (not active) | – | Cc1ccc2c(c1)CCCN2C(=O)c1ccc2c(c1)OCO2 | – |
